What all share (assay): NCI anticancer screen, dose series, 48 h
The test system of assay [1] is A498.
Assay [2] concerns A549.
Assay [3] has as its system CAKI-1.
For assay [4], the system named is CCRF-CEM.
For assay [5], the system named is EKVX.
In assay [6] the test system is HCC 2998.
Assay [7] concerns LOX IMVI.
The test system of assay [8] is MDA-MB-435.
Assay [9] deals with MOLT-4.
In assay [10] the test system is NCI-H23.
The subject of assay [11] is NCI-H522.
The subject of assay [12] is OVCAR-5.
Assay [13] has as its system OVCAR-8.
Assay [14] deals with RXF 393.
For assay [15], the system named is SF-268.
The test system of assay [16] is SN12C.
The subject of assay [17] is SNB-19.
Assay [18] has as its system SW-620.
Assay [19] deals with UO-31.
Assay [20] deals with SR.

SMILES strings stand for the structures.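 Each compound was tested at five concentrations against cells in 96-well plates for 48 hours. GI50 marks 50% less growth.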 Activity calls are given as the source filed them. Rule as the data show it: active = GI50 up to about 1.1 µM and inactive = higher.

Consider `COc1ccc(C2C3=C(COC3=O)Oc3cc4c(cc32)OCO4)cc1OC` (stereo not drawn), for which the GI50 was 0.352 µM (active) in assay [1]; 1.27 µM (inactive) in assay [2]; 2.82 µM (inactive) in assay [3]; 0.428 µM (active) in assay [4]; 3.61 µM (inactive) in assay [5]; 0.614 µM (active) in assay [6]. For the same compound, the GI50 in assay [7] was 0.65 µM (active); in [8], 0.123 µM (active); in assay [9], 0.466 µM (active); in assay [10], 3.94 µM (inactive); in assay [11], 0.437 µM (active); in assay [12], 8.97 µM (inactive). The GI50 in [13] is 4.05 µM (inactive); in assay [14], 0.891 µM (active); in [15] it was 6.17 µM (inactive); in assay [16] it was 5.26 µM (inactive); in assay [17], 0.716 µM (active); in [18], 0.492 µM (active). In addition, the GI50 in [19] was 3.73 µM (inactive).
Consider `CCN(CC)C1=Nc2ccccc2-n2c(C)cnc2C1`, for which the GI50 in assay [1], in [2], in [3], in assay [4], in assay [5] and in assay [6] was > 100 µM (inactive) in each case. The GI50 in assay [7], in assay [8], in assay [9], in [10], in assay [11] and in assay [12] was > 100 µM (inactive) throughout. In addition, the GI50 in assay [13], in assay [14], in assay [15], in [16], in assay [17] and in assay [18] was > 100 µM (inactive) each time. Besides, the GI50 in assay [19] was > 88.7 µM (inactive).
Take `CC(=O)OCC12C(OC(C)=O)C[C@@H](C)C3(CC(c4ccoc4)OC3=O)C1CCC(OC(C)=O)C21CO1` (stereo partly drawn): the GI50 in assay [1], in assay [2], in assay [3], in [4], in assay [5] and in assay [6] was > 100 µM (inactive) in each case. In addition, the GI50 in assay [7], in assay [8], in [9], in [10], in assay [11] and in [12] was > 100 µM (inactive) each time. The GI50 in assay [13], in assay [14], in assay [15], in assay [16], in [17] and in [18] was > 100 µM (inactive) in each case. Also, the GI50 in assay [19] is > 100 µM (inactive).
In the case of `Cc1ccc(O)c(Cc2nc3ccccc3nc2-c2cccc(Cl)c2)c1`, the GI50 in assay [2] is 43.9 µM (inactive); in assay [3], 52.7 µM (inactive); in [5], 34.7 µM (inactive); in assay [6] it was 36.1 µM (inactive); in [7], 36.8 µM (inactive); in [8] it was 21.4 µM (inactive). Moreover, the GI50 was 17.3 µM (inactive) in assay [9]; 69.3 µM (inactive) in [10]; 20.3 µM (inactive) in assay [11]; > 100 µM (inactive) in assay [12]; > 100 µM (inactive) in [13]; > 100 µM (inactive) in assay [14]. Moreover, the GI50 in assay [15] was 97.5 µM (inactive); in assay [16], 55.2 µM (inactive); in assay [17], 21 µM (inactive); in assay [20], 24.7 µM (inactive); in assay [18], 59 µM (inactive); in [19] it was 32.1 µM (inactive).
Turning to `COc1ccc(/N=C(/C[S+]([O-])c2ccc(C)cc2)C(F)(F)F)cc1` (stereo not drawn), the GI50 in [2] is 78 µM (inactive); in assay [3] it was > 100 µM (inactive); in assay [4], 61.9 µM (inactive); in [5], > 100 µM (inactive); in assay [6] it was 41 µM (inactive); in assay [7] it was > 100 µM (inactive). Also, the GI50 was > 100 µM (inactive) in [8]; 53.3 µM (inactive) in [9]; > 100 µM (inactive) in assay [10]; > 100 µM (inactive) in [11]; > 100 µM (inactive) in assay [12]; > 100 µM (inactive) in assay [13]. In addition, the GI50 in assay [14] is > 100 µM (inactive); in assay [16], > 100 µM (inactive); in [17], 71.8 µM (inactive); in assay [20], > 100 µM (inactive); in assay [18], > 100 µM (inactive); in assay [19], 9.57 µM (inactive).
`CCN1CCC(O)(c2ccc(Oc3ccc(F)cc3)cc2)C(C(=O)c2ccc(Oc3ccc(F)cc3)cc2)C1` (stereo not drawn): the GI50 in [2] is 15 µM (inactive); in assay [3] it was 13 µM (inactive); in assay [4] it was 10.1 µM (inactive); in assay [5], 16.6 µM (inactive); in assay [6], 11.4 µM (inactive); in [7] it was 11.8 µM (inactive). Also, the GI50 in [8] is 16.8 µM (inactive); in [9] it was 14 µM (inactive); in [10] it was 14.8 µM (inactive); in assay [12] it was 15 µM (inactive); in assay [13] it was 15 µM (inactive); in [14], 12.2 µM (inactive). For the same compound, the GI50 in assay [15] was 16.9 µM (inactive); in assay [16], 14.2 µM (inactive); in assay [17] it was 15.8 µM (inactive); in assay [20], 2.33 µM (inactive); in assay [18] it was 15.6 µM (inactive).
Turning to `c1cc2c(cc1NC1=NCCO1)CCC2`, the GI50 is > 10 µM (inactive) in assay [2]; > 10 µM (inactive) in assay [4]; > 10 µM (inactive) in assay [5]; > 10 µM (inactive) in assay [6]; > 10 µM (inactive) in assay [7]; 8.04 µM (inactive) in [8]. Also, the GI50 in assay [9], in [10], in assay [13], in assay [14], in [15] and in assay [16] was > 10 µM (inactive) in each case. In addition, the GI50 in [17] was 0.0869 µM (active); in [20], > 10 µM (inactive); in [18], 8.26 µM (inactive).
On to `CC(=O)Oc1ccccc1C(=O)O` [ASPIRIN], for which the GI50 in assay [2], in assay [3], in [4], in assay [5], in [7] and in assay [8] was > 100 µM (inactive) throughout. Besides, the GI50 in assay [9], in [10], in assay [11], in assay [12], in assay [13] and in assay [14] was > 100 µM (inactive) throughout. In addition, the GI50 in [15], in assay [16], in assay [17], in assay [20], in assay [18] and in [19] was > 100 µM (inactive) each time.

The values are drawn from ChEMBL document CHEMBL1201862, “PubChem BioAssay data set” (2004).
